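How tested: cells in 96-well plates exposed to compound for 48 hours at five concentrations. Abbreviation: GI50, concentration required for 50% inhibition of growth.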 Calls of active or inactive are those of the source. Cut-off read from the data, not from the text of the source: active = GI50 up to about 1.1 µM and inactive = higher.
What was measured:
Test in all cases: inhibition of tumour cell growth, NCI panel, 48 h
[1] = test system: 786-0
[2] = test system: A498
[3] = test system: A549
[4] = test system: CAKI-1
[5] = test system: CCRF-CEM
[6] = test system: COLO 205
[7] = test system: DLD-1
[8] = test system: DMS-114
[9] = test system: DMS-273
[10] = test system: EKVX
[11] = test system: HCC 2998
[12] = test system: HCT-15
[13] = test system: HL-60
[14] = test system: HOP-18
[15] = test system: HOP-62
[16] = test system: HOP-92
[17] = test system: HT-29
[18] = test system: IGROV-1
[19] = test system: K562
[20] = test system: KM-20L2
[21] = test system: KM12
[22] = test system: LOX IMVI
[23] = test system: M19-MEL
[24] = test system: MOLT-4
[25] = test system: Malme-3M
[26] = test system: NCI-H226
[27] = test system: NCI-H23
[28] = test system: NCI-H460
[29] = test system: NCI-H522
[30] = test system: OVCAR-3
[31] = test system: OVCAR-5
[32] = test system: OVCAR-8
[33] = test system: RPMI-8226
[34] = test system: RXF 393
[35] = test system: RXF 631
[36] = test system: SF-268
[37] = test system: SF-295
[38] = test system: SF-539
[39] = test system: SK-MEL-28
[40] = test system: SK-MEL-2
[41] = test system: SK-MEL-5
[42] = test system: SK-OV-3
[43] = test system: SN12C
[44] = test system: SNB-75
[45] = test system: SW-620
[46] = test system: TK-10
[47] = test system: U-251
[48] = test system: UACC-257
[49] = test system: UACC-62
[50] = test system: UO-31
[51] = test system: ACHN
[52] = test system: HCT-116
[53] = test system: LXFL 529
[54] = test system: M14
[55] = test system: OVCAR-4
[56] = test system: SNB-19
[57] = test system: SNB-78
[58] = test system: SR

Cc1nc(-c2cccnc2)sc1C(=O)/C=C/c1cccc([N+](=O)[O-])c1
GI50 [1]: > 100 µM (inactive)
GI50 [2]: > 100 µM (inactive)
GI50 [3]: > 100 µM (inactive)
GI50 [4]: > 100 µM (inactive)
GI50 [5]: > 100 µM (inactive)
GI50 [6]: > 100 µM (inactive)
GI50 [7]: > 100 µM (inactive)
GI50 [8]: > 100 µM (inactive)
GI50 [9]: > 100 µM (inactive)
GI50 [10]: > 100 µM (inactive)
GI50 [11]: > 100 µM (inactive)
GI50 [12]: > 100 µM
GI50 [13]: > 100 µM (inactive)
GI50 [14]: > 100 µM (inactive)
GI50 [15]: > 100 µM (inactive)
GI50 [16]: > 100 µM (inactive)
GI50 [17]: > 100 µM (inactive)
GI50 [18]: > 100 µM (inactive)
GI50 [19]: > 100 µM (inactive)
GI50 [20]: > 100 µM (inactive)
GI50 [21]: > 100 µM (inactive)
GI50 [22]: > 100 µM (inactive)
GI50 [23]: > 100 µM (inactive)
GI50 [24]: > 100 µM (inactive)
GI50 [25]: > 100 µM (inactive)
GI50 [26]: > 100 µM (inactive)
GI50 [27]: > 100 µM (inactive)
GI50 [28]: > 100 µM (inactive)
GI50 [29]: > 100 µM (inactive)
GI50 [30]: > 100 µM (inactive)
GI50 [31]: > 100 µM (inactive)
GI50 [32]: > 100 µM (inactive)
GI50 [33]: > 100 µM (inactive)
GI50 [34]: > 100 µM (inactive)
GI50 [35]: > 100 µM (inactive)
GI50 [36]: > 100 µM (inactive)
GI50 [37]: > 100 µM (inactive)
GI50 [38]: > 100 µM (inactive)
GI50 [39]: > 100 µM (inactive)
GI50 [40]: > 100 µM (inactive)
GI50 [41]: > 100 µM (inactive)
GI50 [42]: > 100 µM (inactive)
GI50 [43]: > 100 µM (inactive)
GI50 [44]: > 100 µM (inactive)
GI50 [45]: > 100 µM (inactive)
GI50 [46]: > 100 µM (inactive)
GI50 [47]: > 100 µM (inactive)
GI50 [48]: > 100 µM (inactive)
GI50 [49]: > 100 µM (inactive)
GI50 [50]: > 100 µM (inactive)

Nc1c(-c2nc3ccccc3[nH]2)sc(=S)n1-c1ccccc1
GI50 [1]: 61.2 µM (inactive)
GI50 [2]: > 100 µM (inactive)
GI50 [3]: > 100 µM (inactive)
GI50 [51]: 18.4 µM (inactive)
GI50 [4]: > 100 µM (inactive)
GI50 [5]: 26.1 µM (inactive)
GI50 [6]: > 100 µM (inactive)
GI50 [7]: 60.7 µM (inactive)
GI50 [8]: 96.2 µM (inactive)
GI50 [9]: > 100 µM (inactive)
GI50 [10]: 55.2 µM (inactive)
GI50 [11]: > 100 µM (inactive)
GI50 [52]: > 100 µM (inactive)
GI50 [12]: > 100 µM
GI50 [13]: > 100 µM (inactive)
GI50 [15]: > 100 µM (inactive)
GI50 [16]: > 100 µM (inactive)
GI50 [17]: 92.9 µM (inactive)
GI50 [18]: > 100 µM (inactive)
GI50 [19]: 53.8 µM (inactive)
GI50 [20]: > 10 µM (inactive)
GI50 [21]: > 100 µM (inactive)
GI50 [53]: 95.3 µM (inactive)
GI50 [54]: > 100 µM (inactive)
GI50 [23]: > 100 µM (inactive)
GI50 [24]: 16.3 µM (inactive)
GI50 [25]: 70.8 µM (inactive)
GI50 [26]: > 100 µM (inactive)
GI50 [27]: > 100 µM (inactive)
GI50 [28]: > 100 µM (inactive)
GI50 [29]: 77.3 µM (inactive)
GI50 [30]: 51.2 µM (inactive)
GI50 [55]: > 100 µM (inactive)
GI50 [31]: > 100 µM (inactive)
GI50 [32]: > 100 µM (inactive)
GI50 [33]: 34 µM (inactive)
GI50 [34]: 46.9 µM (inactive)
GI50 [35]: > 100 µM (inactive)
GI50 [36]: > 100 µM (inactive)
GI50 [37]: 72.8 µM (inactive)
GI50 [38]: > 100 µM (inactive)
GI50 [39]: > 100 µM (inactive)
GI50 [40]: > 100 µM (inactive)
GI50 [41]: > 100 µM (inactive)
GI50 [42]: > 100 µM (inactive)
GI50 [43]: > 100 µM (inactive)
GI50 [56]: > 100 µM (inactive)
GI50 [44]: 44.8 µM (inactive)
GI50 [57]: > 100 µM (inactive)
GI50 [58]: 30.3 µM (inactive)
GI50 [45]: > 100 µM (inactive)
GI50 [47]: 76.7 µM (inactive)
GI50 [48]: > 100 µM (inactive)
GI50 [49]: 13.5 µM (inactive)
GI50 [50]: > 100 µM (inactive)

— ChEMBL document CHEMBL1201862, “PubChem BioAssay data set” (2004)
